PMC4893628, “Chalcone-based Selective Inhibitors of a C4 Plant Key Enzyme as Novel Potential Herbicides” (Scientific Reports, 2016)
Several values for one entry are separate records, joined by “and”; a condition that tells them apart may be missing. Identical values can stand only once. Like-named read-outs stand apart in the source and are kept apart here.

Experiments:
Bacillus subtilis 168 = experiment: Bacterial growth in microscale cultivation, B. subtilis; assay type: cell-based; conditions: relative to control
In short: (§1)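 Inhibitors in DMSO were added to the medium, at a maximum of 400 μM for trans-chalcone and 100 μM for 2'-hydroxychalcone. Cultures were seeded at OD600 0.5, or 0.25 for B. subtilis, and growth was followed as 620 nm backscatter in a BioLector at 1200 rpm. Final backscatter, growth rate and lag phase were compared with DMSO controls.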

[1] = test system: Escherichia coli K-12 MG1655; experiment: Bacterial growth in microscale cultivation, E. coli; assay type: cell-based; conditions: relative to control; for activity at 0.3 µM / activity at 3 µM / activity at 30 µM: Escherichia coli
In short: as §1

F. trinervia PEPC = molecular target: T1, F. trinervia PEPC (Flaveria trinervia, UniProt P30694); experiment: biochemical; assay type: biochemical
T1 construct: the full-length ppcA gene of PEPC from F. trinervia (EMBL-Bank X61304); made in house; host or cells: Escherichia coli BL21(DE3)
T1 sequence (P30694 1-966): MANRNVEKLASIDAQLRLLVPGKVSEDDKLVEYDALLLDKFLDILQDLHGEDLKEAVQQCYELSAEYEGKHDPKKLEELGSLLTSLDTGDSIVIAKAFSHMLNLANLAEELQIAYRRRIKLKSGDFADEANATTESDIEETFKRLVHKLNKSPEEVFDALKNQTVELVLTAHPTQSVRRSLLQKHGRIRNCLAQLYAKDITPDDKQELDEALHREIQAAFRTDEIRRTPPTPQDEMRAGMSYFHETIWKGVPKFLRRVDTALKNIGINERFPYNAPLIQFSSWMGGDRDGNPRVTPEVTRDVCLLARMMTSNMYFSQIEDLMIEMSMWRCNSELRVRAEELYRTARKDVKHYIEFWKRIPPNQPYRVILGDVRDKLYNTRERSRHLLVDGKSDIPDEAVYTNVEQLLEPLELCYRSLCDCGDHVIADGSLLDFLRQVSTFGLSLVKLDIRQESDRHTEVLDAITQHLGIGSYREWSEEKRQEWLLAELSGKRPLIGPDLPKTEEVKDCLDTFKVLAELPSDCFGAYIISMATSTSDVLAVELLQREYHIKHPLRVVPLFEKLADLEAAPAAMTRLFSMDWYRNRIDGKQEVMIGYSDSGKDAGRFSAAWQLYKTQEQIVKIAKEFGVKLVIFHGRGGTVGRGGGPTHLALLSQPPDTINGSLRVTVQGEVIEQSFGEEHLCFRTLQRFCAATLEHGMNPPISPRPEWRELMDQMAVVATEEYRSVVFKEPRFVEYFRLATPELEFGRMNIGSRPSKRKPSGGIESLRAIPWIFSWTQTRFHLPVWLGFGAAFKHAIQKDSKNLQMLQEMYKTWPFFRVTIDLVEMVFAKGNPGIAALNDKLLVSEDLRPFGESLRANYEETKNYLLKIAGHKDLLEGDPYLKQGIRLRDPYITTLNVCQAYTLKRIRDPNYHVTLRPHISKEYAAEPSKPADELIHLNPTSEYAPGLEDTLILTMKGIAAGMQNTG

[2] = test system: Corynebacterium glutamicum ATCC13032; experiment: Bacterial growth in microscale cultivation, C. glutamicum; assay type: cell-based; conditions: relative to control; for activity at 0.3 µM / activity at 3 µM / activity at 30 µM: Corynebacterium glutamicum
In short: as §1

O=C(/C=C/c1ccc(O)c(O)c1)c1c(O)cc(O)cc1O [Compound 11, 2′,4′,6′,3,4-Pentahydroxy-chalcone]
activity at 0.3 µM (Bacillus subtilis 168; Bacillus subtilis, 168, complex medium, 0.3 µM, read-out: Final Backscatter): 97.4% | activity at 0.3 µM (Bacillus subtilis 168; Bacillus subtilis, 168, complex medium, 0.3 µM, read-out: Growth rate): 106% | activity at 3 µM (Bacillus subtilis 168; Bacillus subtilis, 168, complex medium, 3 µM, read-out: Final Backscatter): 96.5% | activity at 3 µM (Bacillus subtilis 168; Bacillus subtilis, 168, complex medium, 3 µM, read-out: Growth rate): 106% | activity at 30 µM (Bacillus subtilis 168; Bacillus subtilis, 168, complex medium, 30 µM, read-out: Final Backscatter): 97.1% | activity at 30 µM (Bacillus subtilis 168; Bacillus subtilis, 168, complex medium, 30 µM, read-out: Growth rate): 97.8% | activity at 0.3 µM (Bacillus subtilis 168; Bacillus subtilis, 168, minimal medium, 0.3 µM, read-out: Final Backscatter): 97.2% | activity at 0.3 µM (Bacillus subtilis 168; Bacillus subtilis, 168, minimal medium, 0.3 µM, read-out: Growth rate): 114% | activity at 3 µM (Bacillus subtilis 168; Bacillus subtilis, 168, minimal medium, 3 µM, read-out: Final Backscatter): 98.7% | activity at 3 µM (Bacillus subtilis 168; Bacillus subtilis, 168, minimal medium, 3 µM, read-out: Growth rate): 107% | activity at 30 µM (Bacillus subtilis 168; Bacillus subtilis, 168, minimal medium, 30 µM, read-out: Final Backscatter): 103% | activity at 30 µM (Bacillus subtilis 168; Bacillus subtilis, 168, minimal medium, 30 µM, read-out: Growth rate): 103% | Lag Phase (Bacillus subtilis 168; complex medium, 0.3 µM): 100,0% | Lag Phase (Bacillus subtilis 168; complex medium, 3 µM): 100,0% | Lag Phase (Bacillus subtilis 168; complex medium, 30 µM): 100,0% | Lag Phase (Bacillus subtilis 168; minimal medium, 0.3 µM): 100,0% | Lag Phase (Bacillus subtilis 168; minimal medium, 3 µM): 101,1% | Lag Phase (Bacillus subtilis 168; minimal medium, 30 µM): 100,0% | activity at 0.3 µM ([1]; MG1655, complex medium, 0.3 µM, read-out: Final Backscatter): 98% | activity at 0.3 µM ([1]; MG1655, complex medium, 0.3 µM, read-out: Growth rate): 104% | activity at 3 µM ([1]; MG1655, complex medium, 3 µM, read-out: Final Backscatter): 98.1% | activity at 3 µM ([1]; MG1655, complex medium, 3 µM, read-out: Growth rate): 106% | activity at 30 µM ([1]; MG1655, complex medium, 30 µM, read-out: Final Backscatter): 96.9% | activity at 30 µM ([1]; MG1655, complex medium, 30 µM, read-out: Growth rate): 104% | activity at 0.3 µM ([1]; MG1655, minimal medium, 0.3 µM, read-out: Final Backscatter): 98% | activity at 0.3 µM ([1]; MG1655, minimal medium, 0.3 µM, read-out: Growth rate): 107% | activity at 3 µM ([1]; MG1655, minimal medium, 3 µM, read-out: Final Backscatter): 98.7% | activity at 3 µM ([1]; MG1655, minimal medium, 3 µM, read-out: Growth rate): 109% | activity at 30 µM ([1]; MG1655, minimal medium, 30 µM, read-out: Final Backscatter): 97.9% | activity at 30 µM ([1]; MG1655, minimal medium, 30 µM, read-out: Growth rate): 107% | Lag Phase ([1]; complex medium, 0.3 µM): 107,1% | Lag Phase ([1]; complex medium, 3 µM): 107,1% | Lag Phase ([1]; complex medium, 30 µM): 107,1% | Lag Phase ([1]; minimal medium, 0.3 µM): 103,4% | Lag Phase ([1]; minimal medium, 3 µM): 101,7% | Lag Phase ([1]; minimal medium, 30 µM): 103,4% | lower inhibitory effect / weaker inhibitory potency compared to okanin (12) (F. trinervia PEPC; C4 PEPC): ~ four | Selectivity C4/C3 (F. trinervia PEPC; C4 PEPC over C3 isoform): 3.3 fold | IC50 (F. trinervia PEPC; C4 PEPC, read-out: IC50 F. trinervia PEPC): 2500 ± 100 nM | decreased / lower selectivity compared to okanin (12) (F. trinervia PEPC; C4 vs. C3 PEPC): ~ 14 fold and ~ 13 fold | activity at 0.3 µM ([2]; ATCC13032, complex medium, 0.3 µM, read-out: Final Backscatter): 99.6% | activity at 0.3 µM ([2]; ATCC13032, complex medium, 0.3 µM, read-out: Growth rate): 94.6% | activity at 3 µM ([2]; ATCC13032, complex medium, 3 µM, read-out: Final Backscatter): 103% | activity at 3 µM ([2]; ATCC13032, complex medium, 3 µM, read-out: Growth rate): 104% | activity at 30 µM ([2]; ATCC13032, complex medium, 30 µM, read-out: Final Backscatter): 103% | activity at 30 µM ([2]; ATCC13032, complex medium, 30 µM, read-out: Growth rate): 95.3% | activity at 0.3 µM ([2]; ATCC13032, minimal medium, 0.3 µM, read-out: Final Backscatter): 100% | activity at 0.3 µM ([2]; ATCC13032, minimal medium, 0.3 µM, read-out: Growth rate): 104% | activity at 3 µM ([2]; ATCC13032, minimal medium, 3 µM, read-out: Final Backscatter): 95.1% | activity at 3 µM ([2]; ATCC13032, minimal medium, 3 µM, read-out: Growth rate): 105% | activity at 30 µM ([2]; ATCC13032, minimal medium, 30 µM, read-out: Final Backscatter): 96.2% | activity at 30 µM ([2]; ATCC13032, minimal medium, 30 µM, read-out: Growth rate): 104% | Lag Phase ([2]; complex medium, 0.3 µM): 97,0% | Lag Phase ([2]; complex medium, 3 µM): 97,0% | Lag Phase ([2]; complex medium, 30 µM): 98,5% | Lag Phase ([2]; minimal medium, 0.3 µM): 99,3% | Lag Phase ([2]; minimal medium, 3 µM): 98,5% | Lag Phase ([2]; minimal medium, 30 µM): 98,5%
